{
  "source": "patent US20070099995A1",
  "about": "“Use of hydroxyoleic acid and related compounds as functional food additives” (priority 2003, published 2007)",
  "key": {"[1]": {"experiment": "Blood pressure and heart rate after ingestion (species not stated)", "format": "in vivo", "settings": "chronic treatments lasting a week", "protocol": "The hypotensive effect produced by ingestion of 2-hydroxyoleic acid and its analogs results in a reduction in blood pressure within 2 hours of ingestion, and this is maintained for days and weeks while ingestion of this compound is maintained. Aminoleic acid, for example, reduces blood pressure by 15 mmHg in chronic treatments lasting a week."}, "[2]": {"experiment": "Hypotensive test: systolic arterial pressure in female Sprague-Dawley rats", "format": "in vivo, rat", "settings": "for effect on systolic arterial pressure with respect to the control: short-term (2 to 4 hours) administration, female Sprague-Dawley rats, FIG. 5; for reduction of blood pressure: rats", "protocol": "(§1) 2-Hydroxyoleic acid induced significant reductions of blood pressure in rats (FIG. 4a). These reductions occurred rapidly (at 2 hours of treatment, 19±6 mmHg, P<0.01, n=6) and after a long period (1 week, 26±7 mmHg, P<0.001, n=6). In genetically hypertensive rats, SHR strain, ingestion of 2-hydroxyoleic acid (600 mg/kg every 12 hours) produced very marked reductions in blood pressure. These reductions, of some 70 mmHg, induced normalization of systolic pressure in hypertensive SHR rats."}, "[3]": {"test_system": "G-proteins", "experiment": "Binding of [35S]GTPγS to membranes of NIH 3T3 cells transfected with the rat adrenoceptor α2A/D (activity of G-proteins)", "format": "biochemical", "settings": "membranes of NIH 3T3 cells transfected with rat adrenoceptor α2A/D; FIG. 2; compared with daunomycin", "description": "Hydroxyoleic acid and related compounds are capable of modulating the activity of G-proteins, measured by the binding of [^35S] GTPγS (FIG. 2). […] Abscissa: C=control; 2OHOA=2-hydroxyoleic; DNM=daunomycin. Ordinate: Binding of [^35S]GTPγS (% of control)."}, "[4]": {"experiment": "Body weight of normotensive (WKY) and hypertensive (SHR) rats", "format": "in vivo, rat", "settings": "600 mg/kg every 12 hours, 8 days", "protocol": "In another series of experiments, the diet of normotensive rats (WKY) and hypertensive rats (SHR) was supplemented with hydroxyoleic acid (600 mg/kg, every 12 hours) and it was confirmed that the weight of the animals decreased by between 30 and 40 grams (15-20% of the body weight) in an 8-day diet period (FIG. 8)."}, "[5]": {"experiment": "Blood pressure in humans", "format": "in vivo, human", "settings": "90 mg/kg per day for 8 days, FIG. 4b", "description": "The days prior to treatment are shown with negative values. *P<0.05, **P<0.01."}, "[6]": {"experiment": "Systolic arterial pressure in genetically hypertensive rats, SHR strain", "format": "in vivo, rat", "protocol": "as §1\n(§2) In SHRs which were not given 2-hydroxyoleic acid (SHR empty squares), no reduction in arterial pressure was observed. […] The reduction induced by hydroxyoleic acid on arterial pressure meant that there was no significant difference between the values registered at the end of the diet period for the hypertensive and normotensive rats."}, "[7]": {"experiment": "Systolic arterial pressure in normotensive WKY rats", "format": "in vivo, rat", "settings": "male WKY (normotensive) rats, 600 mg/kg every 12 hours for 7 days, FIG. 6", "protocol": "as §1, §2"}},
  "data": [
    {"compound": "Aminoleic acid", "values": [
      {"measurement": "reduction of blood pressure", "setting": "[1]", "result": 15, "unit": "mmHg"}
    ]},
    {"compound": "CCCCCCCC/C=C\\CCCCCCC(C)C(=O)O", "note": "(stereo not drawn) [2-methyl oleic acid]", "values": [
      {"measurement": "effect on systolic arterial pressure with respect to the control", "setting": "[2]", "result": "significant decreases"}
    ]},
    {"compound": "CCCCCC/C=C\\CCCCCCCC(=O)O", "note": "[palmitoleic acid]", "values": [
      {"measurement": "effect on systolic arterial pressure with respect to the control", "setting": "[2]", "result": "significant decreases"}
    ]},
    {"compound": "CCCCCCCC/C=C\\CCCCCCCC(=O)O", "note": "[oleic acid]", "values": [
      {"measurement": "effect on systolic arterial pressure with respect to the control", "setting": "[2]", "result": "significant decreases"}
    ]},
    {"compound": "CCCCCC/C=C\\CCCCCCCCCC(=O)O", "note": "[cis-vaccenic acid]", "values": [
      {"measurement": "effect on systolic arterial pressure with respect to the control", "setting": "[2]", "result": "significant decreases"}
    ]},
    {"compound": "CCCCCCCC/C=C\\CCCCCCCCCCCCCC(=O)O", "note": "[nervonic acid]", "values": [
      {"measurement": "effect on systolic arterial pressure with respect to the control", "setting": "[2]", "result": "significant decreases"}
    ]},
    {"compound": "CCCCCCCC/C=C\\CCCCCCC(O)C(=O)O", "note": "(stereo not drawn) [2-hydroxyoleic acid, cis-2-hydroxy-9-octadecenoic acid]", "values": [
      {"measurement": "Binding of [35S]GTPγS (function of the G-proteins)", "setting": "[3]", "result": "decrease in function of the G-proteins even greater than daunomycin"},
      {"measurement": "reduction in body weight", "setting": "[4]", "result": "15-20%"},
      {"measurement": "effect on blood pressure", "setting": "[5]", "result": "significant, large decreases"},
      {"measurement": "reduction of blood pressure", "setting": "[2]; 1 week (chronic, 90 mg/kg per day for 7 days, FIG. 4a), n=6, P<0.001", "result": "26±7", "unit": "mmHg"},
      {"measurement": "reduction of blood pressure", "setting": "[2]; at 2 hours of treatment (acute, 30 mg/kg, FIG. 4a), n=6, P<0.01", "result": "19±6", "unit": "mmHg"},
      {"measurement": "effect on systolic arterial pressure with respect to the control", "setting": "[2]", "result": "significant decreases"},
      {"measurement": "reduction in blood pressure (systolic)", "setting": "[6]; SHR rats, 600 mg/kg every 12 hours", "result": "~70", "unit": "mmHg"},
      {"measurement": "effect on systolic arterial pressure", "setting": "[6]; male SHR rats, 600 mg/kg every 12 hours for 7 days, FIG. 6", "result": "significant, large reductions"},
      {"measurement": "effect on arterial pressure", "setting": "[7]", "result": "neither the 2-hydroxyoleic acid (black circles) nor the vehicle (empty circles) produced statistically significant changes"}
    ]}
  ]
}
